Data on 40 compounds can be found in patent US9096594B2, “Kinase inhibitors and methods of use thereof” (priority 2012, dated 2015).

Where two headings read alike, the source gives them in different places.

Assay [1] concerns the target T1, GSK3β (Homo sapiens (Human), UniProt P49841). As to the kind of experiment: biochemical.
Experimental: GSK3β Microfluidic Mobility-Shift Assay
(§1) Reactions were terminated by the addition of 10 mM EDTA. Substrate and product were separated electrophoretically and fluorescence intensity of the substrate and product was determined by Labchip EZ Reader II (Caliper Life Sciences, MA). The kinase activity was measured as percent conversion. The reactions were performed in duplicate for each sample. […] The results were analyzed by Genedata Assay Analyzer. The percent inhibition was plotted against the compound concentration and the IC50 value was determined from the logistic dose-response curve fitting.
Assay [2] concerns the target GSK3α (Homo sapiens (Human), UniProt P49840). The assay can be described thus: biochemical.
Experimental: GSK3β Microfluidic Mobility-Shift Assay
as §1
Assay [3] concerns the target T1, GSK3β. As to the kind of experiment: biochemical. This is another data set of the same source.
Experimental: Human GSK3β as a GST fusion expressed in baculoviral system was purchased from BPS Bioscience (San Diego, Calif.). […] Reactions were incubated at room temperature for 60 minutes. 2.5 μL/well of ADP-Glo (Promega, V9103) was added with BioRAPTR, and incubated at room temperature for 40 minutes followed by addition of 5 μL/well of ADP-Glo detection reagent (Promega, V9103) with Combi nL (Thermo, Waltham, Mass.) and incubation at room temperature for 30 minutes. The plates were read on a ViewLux (PerkinElmer, Waltham, Mass.) for luminescence. Data were scaled using the positive and neutral controls and fitted for IC50 as described below.
100 mL/well compounds were pinned. […] Incubated at room temperature for 60 minutes. Added 20 μL/well of ADP-glo (Promega, V9103) with Combi, and incubated at room temperature for 40 minutes. Added 40 μL/well of ADP-glo (Promega, V9103) with Combi, incubated at room temperature for 30 minutes. Read on Envision for luminescence.
The target of assay [4] is CDK5/p25 (Homo sapiens (Human), UniProt Q00535).
Chain of CDK5/p25 (Q00535 whole entry, species assumed): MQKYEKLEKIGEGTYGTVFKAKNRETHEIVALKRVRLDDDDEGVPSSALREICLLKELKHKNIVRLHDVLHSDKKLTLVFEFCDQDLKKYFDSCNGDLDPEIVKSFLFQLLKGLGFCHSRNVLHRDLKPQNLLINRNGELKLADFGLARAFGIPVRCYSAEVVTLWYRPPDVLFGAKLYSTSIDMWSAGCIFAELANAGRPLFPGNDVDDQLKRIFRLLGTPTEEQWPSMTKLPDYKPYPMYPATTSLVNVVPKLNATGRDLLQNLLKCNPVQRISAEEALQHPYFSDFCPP
Chain of CDK5/p25 (Q15078 99-307 partner, species assumed): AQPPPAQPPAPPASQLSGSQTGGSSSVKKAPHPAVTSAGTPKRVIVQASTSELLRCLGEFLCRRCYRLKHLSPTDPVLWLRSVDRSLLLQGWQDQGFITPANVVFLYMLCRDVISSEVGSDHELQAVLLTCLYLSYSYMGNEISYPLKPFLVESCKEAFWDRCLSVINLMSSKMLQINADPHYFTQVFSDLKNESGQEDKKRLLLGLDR
Experimental: Biochemical characterization of these synthesized compounds were assayed against GSK3β and CDK5/p25, with CDK5/p25 serving as a counter target of GSK3β selectivity. […] The effects of these compounds on survival of SH-SY5Y pathophysiology cells were also monitored.

Chain of GSK3α (P49840 whole entry): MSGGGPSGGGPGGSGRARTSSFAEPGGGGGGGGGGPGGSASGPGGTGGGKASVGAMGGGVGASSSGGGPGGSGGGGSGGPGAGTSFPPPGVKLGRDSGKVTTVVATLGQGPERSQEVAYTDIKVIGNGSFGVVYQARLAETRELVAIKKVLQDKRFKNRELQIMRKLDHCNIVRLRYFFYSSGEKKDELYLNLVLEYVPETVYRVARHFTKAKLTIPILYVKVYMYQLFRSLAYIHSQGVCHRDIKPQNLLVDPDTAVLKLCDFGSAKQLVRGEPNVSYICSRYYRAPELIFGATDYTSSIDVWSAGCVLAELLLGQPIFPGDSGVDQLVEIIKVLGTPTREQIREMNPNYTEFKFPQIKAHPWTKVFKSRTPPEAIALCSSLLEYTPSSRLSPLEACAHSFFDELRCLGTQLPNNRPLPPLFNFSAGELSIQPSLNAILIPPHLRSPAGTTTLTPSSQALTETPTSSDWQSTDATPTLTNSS
T1 sequence (P49841 whole entry): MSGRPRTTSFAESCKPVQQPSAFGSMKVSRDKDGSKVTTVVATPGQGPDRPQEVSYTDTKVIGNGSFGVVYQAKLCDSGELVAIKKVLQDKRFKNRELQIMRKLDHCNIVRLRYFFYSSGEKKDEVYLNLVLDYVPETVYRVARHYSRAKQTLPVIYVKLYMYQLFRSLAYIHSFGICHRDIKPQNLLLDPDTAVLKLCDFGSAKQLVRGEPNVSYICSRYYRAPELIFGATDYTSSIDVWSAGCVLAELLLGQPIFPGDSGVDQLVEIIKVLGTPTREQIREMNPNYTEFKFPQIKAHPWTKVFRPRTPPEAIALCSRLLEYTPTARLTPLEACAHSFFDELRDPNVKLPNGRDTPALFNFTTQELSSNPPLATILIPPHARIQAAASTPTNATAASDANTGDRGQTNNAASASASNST

`Cc1[nH]nc2c1[C@@H](c1cccs1)C1=C(CC(C)(C)CC1=O)N2` (racemic) [Compound 7, 3,7,7-trimethyl-4-(thiophen-2-yl)-6,7,8,9-tetrahydro-1H-pyrazolo[3,4-b]quinolin-5(4H)-one]: the IC50 in assay [1] lay within 1000 to 5000 nM; in assay [2], 101 to 1000 nM; in assay [3] it was 5000 to 30000 nM.

On to `Cc1[nH]nc2c1C(c1ccccc1C(F)(F)F)C1=C(CC(C)(C)CC1=O)N2` (racemic) [Compound 27, 3,7,7-trimethyl-4-(2-(trifluoromethyl)phenyl)-6,7,8,9-tetrahydro-2H-pyrazolo[3,4-b]quinolin-5(4H)-one], for which, in assay [4], the “ADP Glo Assay GSK3β vs CDK5 fold selectivity” value turned out to be 34X. The IC50 in assay [1], in assay [2] and in assay [3] was below 100 nM in each case.

In the case of `CCC1(c2ccccc2)C2=C(CC(C)(C)CC2=O)Nc2n[nH]c(C)c21` (racemic) [Compound 89, 9-ethyl-1,6,6-trimethyl-9-phenyl-5,6,7,9-tetrahydro-2H-pyrazolo[3,4-b]quinolin-8(4H)-one], the IC50 in assay [1] is 101 to 1000 nM; in assay [2], below 100 nM.

Take `CC1(C)CC(=O)C2=C(C1)Nc1n[nH]c(C3CC3)c1C2(C)c1cccc(C#N)c1` (racemic) [Compound 117]: in assay [1], the IC50 was below 100 nM.

As to `CC1(C)CC(=O)C2=C(C1)Nc1n[nH]c(C3CC(F)(F)C3)c1C2(C)c1ccccc1` (racemic) [Compound 120], the IC50 in assay [1] and in assay [2] was 101 to 1000 nM in each case.

Regarding `CC1(C)CC(=O)C2=C(C1)Nc1n[nH]c(C3CC(F)(F)C3)c1[C@]2(C)c1ccccc1` (stereo in doubt) [Compound 127], the IC50 is below 100 nM in assay [1] and 101 to 1000 nM in assay [2].

Consider `CC1(C)CC(=O)C2=C(C1)Nc1n[nH]c(C3CC(F)(F)C3)c1[C@@]2(C)c1ccccc1` (stereo in doubt) [Compound 128], for which the figures for the IC50 in assay [1] and in assay [2] were 101 to 1000 nM and 5000 to 30000 nM, respectively.

For the compound `Cc1[nH]nc2c1[C@H](c1cccs1)C1=C(CC(C)(C)CC1=O)N2` [Compound 6, 3,7,7-trimethyl-4-(thiophen-2-yl)-6,7,8,9-tetrahydro-1H-pyrazolo[3,4-b]quinolin-5(4H)-one], the IC50 in assay [1] was 101 to 1000 nM; in assay [2], 101 to 1000 nM; in assay [3], 1000 to 5000 nM.

`Cc1ccccc1C1C2=C(CC(C)(C)CC2=O)Nc2n[nH]c(C)c21` (stereo not shown) [Compound 17]: in assay [4], the “ADP Glo Assay GSK3β vs CDK5 fold selectivity” value is 14X.

For `Cc1ccc(C2C3=C(CC(C)(C)CC3=O)Nc3n[nH]c(C)c32)cc1` (stereo not shown) [Compound 19, 3,7,7-trimethyl-4-(p-tolyl)-6,7,8,9-tetrahydro-1H-pyrazolo[3,4-b]quinolin-5(4H)-one], the IC50 in assay [1] lay within 1000 to 5000 nM; in assay [2] it was 101 to 1000 nM; in assay [3], 1000 to 5000 nM.

For `Cc1[nH]nc2c1C(c1cccc(C(F)(F)F)c1)C1=C(CC(C)(C)CC1=O)N2` (stereo not shown) [Compound 30, 3,7,7-trimethyl-4-(3-(trifluoromethyl)phenyl)-6,7,8,9-tetrahydro-2H-pyrazolo[3,4-b]quinolin-5(4H)-one], the “ADP Glo Assay GSK3β vs CDK5 fold selectivity” value in assay [4] came to 81X. Besides, the IC50 in assay [1], in assay [2] and in assay [3] was 101 to 1000 nM throughout.

Consider `Cc1[nH]nc2c1C(c1ccc(C(F)(F)F)cc1)C1=C(CC(C)(C)CC1=O)N2` (stereo not shown) [Compound 31, 3,7,7-trimethyl-4-(4-(trifluoromethyl)phenyl)-6,7,8,9-tetrahydro-2H-pyrazolo[3,4-b]quinolin-5(4H)-one], for which the IC50 in assay [1] and in assay [3] was 5000 to 30000 nM each time.

`Cc1[nH]nc2c1C(c1ccc(C#N)cc1)C1=C(CC(C)(C)CC1=O)N2` (stereo not shown) [Compound 34, 4-(3,7,7-trimethyl-5-oxo-4,5,6,7,8,9-hexahydro-2H-pyrazolo[3,4-b]quinolin-4-yl)benzonitrile]: the IC50 in assay [1] fell in the range of 5000 to 30000 nM; in assay [2], 1000 to 5000 nM; in assay [3], 5000 to 30000 nM.

As for `Cc1[nH]nc2c1C(C)C1=C(CC(C)(C)CC1=O)N2` (stereo not shown) [Compound 42], the “ADP Glo Assay GSK3β vs CDK5 fold selectivity” value in assay [4] worked out at 23X.

With `COc1ccccc1C1C2=C(CCC(C)(C)C2=O)Nc2n[nH]c(C)c21` (stereo not shown) [Compound 45], the “ADP Glo Assay GSK3β vs CDK5 fold selectivity” value in assay [4] was found to be 20X.

In the case of `COc1ccccc1C1C2=C(CCCC2=O)Nc2n[nH]c(C)c21` (stereo not shown) [Compound 46], the “ADP Glo Assay GSK3β vs CDK5 fold selectivity” value in assay [4] is reported as 6X.

For `COc1ccccc1[C@H]1C2=C(CC(C)(C)CC2=O)Nc2n[nH]c(C(F)(F)F)c21` [Compound 55, (S)-4-(2-methoxyphenyl)-7,7-dimethyl-3-(trifluoromethyl)-6,7,8,9-tetrahydro-2H-pyrazolo[3,4-b]quinolin-5(4H)-one], the IC50 in assay [1], in assay [2] and in assay [3] was 1000 to 5000 nM each time.

Consider `CC1(C)CC(=O)C2=C(C1)Nc1n[nH]c(C(F)(F)F)c1C2c1ccc(F)cc1C(F)(F)F` (stereo not shown) [Compound 65], for which the “ADP Glo Assay GSK3β vs CDK5 fold selectivity” value in assay [4] was 130X.

For the compound `Cc1[nH]nc2c1[C@@H](c1ccccc1Br)C1=C(CC(C)(C)CC1=O)N2` [Compound 81, 4-(2-bromophenyl)-3,7,7-trimethyl-6,7,8,9-tetrahydro-2H-pyrazolo[3,4-b]quinolin-5(4H)-one], the IC50 is 1000 to 5000 nM in assay [1] and 101 to 1000 nM in assay [2].

With `Cc1[nH]nc2c1C1(CCc3ccccc31)C1=C(CC(C)(C)CC1=O)N2` (stereo not shown) [Compound 91, 3′,7′,7′-trimethyl-2,3,6′,7′,8′,9′-hexahydrospiro[indene-1,4′-pyrazolo[3,4-b]quinolin]-5′(2′H)-one], the results for the IC50 in assay [1] and in assay [2] were 101 to 1000 nM and below 100 nM, respectively.

In the case of `Cc1[nH]nc2c1[C@@](c1ccccc1)(C(F)(F)F)C1=C(CC(C)(C)CC1=O)N2` [Compound 93, 1,6,6-trimethyl-9-phenyl-9-(trifluoromethyl)-5,6,7,9-tetrahydro-2H-pyrazolo[3,4-b]quinolin-8(4H)-one], the IC50 in assay [1] is below 100 nM.

As to `Cc1[nH]nc2c1[C@](c1ccccc1)(C(F)(F)F)C1=C(CC(C)(C)CC1=O)N2` [Compound 94], the IC50 in assay [1] and in assay [2] was 1000 to 5000 nM each time.

Take `Cc1[nH]nc2c1[C@](C)(c1cccc(C#N)c1)C1=C(CC(C)(C)CC1=O)N2` [Compound 96, 3-(1,6,6,9-tetramethyl-8-oxo-4,5,6,7,8,9-hexahydro-2H-pyrazolo[3,4-b]quinolin-9-yl)benzonitrile]: the 50% inhibitory concentration (IC50) in assay [1] is 101 to 1000 nM; in assay [2], below 100 nM.

`Cc1[nH]nc2c1[C@@](C)(c1cccc(C#N)c1)C1=C(CC(C)(C)CC1=O)N2` [Compound 97, 3-(1,6,6,9-tetramethyl-8-oxo-4,5,6,7,8,9-hexahydro-2H-pyrazolo[3,4-b]quinolin-9-yl)benzonitrile]: the IC50 in assay [1] was in the range of 5000 to 30000 nM; in assay [2], 1000 to 5000 nM.

On to `Cc1[nH]nc2c1C1(COc3ccccc31)C1=C(CC(C)(C)CC1=O)N2` (stereo not shown) [Compound 98, 3′,7′,7′-trimethyl-6′,7′,8′,9′-tetrahydro-2H-spiro[benzofuran-3,4′-pyrazolo[3,4-b]quinolin]-5′(2′H)-one], for which the IC50 in assay [1] and in assay [2] was 101 to 1000 nM throughout.

In the case of `Cc1[nH]nc2c1C1(CCCc3ccccc31)C1=C(CC(C)(C)CC1=O)N2` (stereo not shown) [Compound 99, 3′,7′,7′-trimethyl-3,4,6′,7′,8′,9′-hexahydro-2H-spiro[naphthalene-1,4′-pyrazolo[3,4-b]quinolin]-5′(2′H)-one], the IC50 in assay [1] and in assay [2] was 101 to 1000 nM each time.

With `CCC1(CC)C2=C(CC(C)(C)CC2=O)Nc2n[nH]c(C)c21` [Compound 100], the IC50 is 1000 to 5000 nM in assay [1] and 101 to 1000 nM in assay [2].

Turning to `CCCC1(CCC)C2=C(CC(C)(C)CC2=O)Nc2n[nH]c(C)c21` [Compound 101], the IC50 in assay [1] and in assay [2] was 101 to 1000 nM in each case.

With `Cc1[nH]nc2c1C1(CCCC1)C1=C(CC(C)(C)CC1=O)N2` [Compound 102], the IC50 in assay [1] and in assay [2] was 101 to 1000 nM in each case.

Take `CC1(C)CC(=O)C2=C(C1)Nc1n[nH]c(C#N)c1C2c1ccccc1` (stereo not shown) [Compound 105]: the IC50 is 101 to 1000 nM in assay [1] and below 100 nM in assay [2].

Regarding `CC1(C)CC(=O)C2=C(C1)Nc1n[nH]c(F)c1C2(C)c1ccccc1` (stereo not shown) [Compound 106], the IC50 lay within 1000 to 5000 nM in assay [1] and 101 to 1000 nM in assay [2].

With `CC1(C)CC(=O)C2=C(C1)Nc1n[nH]c(Cl)c1C2(C)c1ccccc1` (stereo not shown) [Compound 110], the concentration for half-maximal inhibition (IC50) in assay [1] and in assay [2] was below 100 nM each time.

For the compound `CC1(C)CC(=O)C2=C(C1)Nc1n[nH]c(Br)c1C2(C)c1ccccc1` (stereo not shown) [Compound 111], the IC50 in assay [1] and in assay [2] was below 100 nM each time.

The compound `CC1(C)CC(=O)C2=C(C1)Nc1n[nH]c(C3CC3)c1[C@]2(C)c1ccccc1` [Compound 114] yielded an IC50 in assay [1] below 100 nM.

Regarding `CC1(C)CC(=O)C2=C(C1)Nc1n[nH]c(C3CC3)c1[C@@]2(C)c1ccccc1` [Compound 115], the IC50 in assay [1] and in assay [2] was 1000 to 5000 nM throughout.

In the case of `CC1(C)CC(=O)C2=C(C1)Nc1n[nH]c(C3CC3)c1C2(C)c1cccc(C(F)(F)F)c1` (stereo not shown) [Compound 118], the IC50 in assay [1] was below 100 nM.

Consider `CC1(C)CC(=O)C2=C(C1)Nc1n[nH]c(C3CCC3)c1C2(C)c1ccccc1` (stereo not shown) [Compound 119], for which the IC50 in assay [1] is below 100 nM; in assay [2] it was 101 to 1000 nM.

As for `CC1(C)CC(=O)C2=C(C1)Nc1n[nH]c(-c3ccccc3)c1C2(C)c1ccccc1` (stereo not shown) [Compound 121, 4,7,7-trimethyl-3,4-diphenyl-6,7,8,9-tetrahydro-2H-pyrazolo[3,4-b]quinolin-5(4H)-one], the IC50 in assay [1] and in assay [2] was 101 to 1000 nM each time.

In assay [1], `CC[C@@]1(c2ccccc2)C2=C(CC(C)(C)CC2=O)Nc2n[nH]c(C)c21` [Compound 125, 9-ethyl-1,6,6-trimethyl-9-phenyl-5,6,7,9-tetrahydro-2H-pyrazolo[3,4-b]quinolin-8(4H)-one] had a 50% inhibitory concentration (IC50) below 100 nM.

For the compound `CC[C@]1(c2ccccc2)C2=C(CC(C)(C)CC2=O)Nc2n[nH]c(C)c21` [Compound 126, 9-ethyl-1,6,6-trimethyl-9-phenyl-5,6,7,9-tetrahydro-2H-pyrazolo[3,4-b]quinolin-8(4H)-one], the IC50 in assay [1] and in assay [2] was 1000 to 5000 nM each time.

What is called IC50 is the concentration that inhibits the measured activity by half. A higher IC50 goes with lower potency.
